Source: patent publication US20030162818A1, “Acylsulfonamide derivative” (AJINOMOTO CO. INC., priority 1997, published 2003)

Legend:
[1] = molecular target: T1, acetyl-CoA carboxylase (ACC) (Rattus norvegicus, UniProt P11497); test: Measurement of ACC inhibition activity (14C-bicarbonate incorporation, ACC purified from rat liver); assay type: biochemical; details: 5.6 × 10^−6 M compound; ACC purified from SD rat liver
T1 construct: subjected to decapitation and bloodletting under ether anesthesia to quickly take out the liver; from tissue; host or cells: rat liver (male SD rat, fasted then fed a high-sucrose feed)
Procedure: After 2 days of fasting, a male SD rat of 12 weeks of age was allowed to feed on a high sucrose feed (67% sucrose, 17.1% casein, 9.8% cellulose, 5% sodium chloride, 0.1% choline chloride and 1% vitamins) for 2 days and then subjected to decapitation and bloodletting under ether anesthesia to quickly take out the liver. The thus obtained liver was sliced in an ice-cooled buffer A (225 mM mannitol, 75 mM sucrose, 10 mM Tris/HCl (pH 7.5), 0.05 mM EDTA-2Na, 5 mM potassium citrate, 2.5 mM MnCl2, 10 mg/l aprotinin, 10 mg/l leupeptin and 10 mg/l antitrypsin) and then, after removal of moisture, adjusted to 5 ml/g by adding the buffer A and homogenized for 4 minutes using Polytron homogenizer. This was centrifuged for 10 minutes at 1,000 g and then the resulting supernatant was subjected to 10 minutes of high speed centrifugation at 17,000 g.
Ammonium sulfate was added to the thus obtained supernatant to a final concentration of 35%, and the mixture was stirred for 45 minutes and then subjected to 10 minutes of high speed centrifugation at 17,000 g. The thus obtained precipitate was mixed with 100 ml of a buffer B (100 mM Tris/HCl (pH 7.5), 0.5 M NaCl, 1 mM EDTA-2Na, 0.1 mM DTT, 10% glycerol, 10 mg/l aprotinin, 10 mg/l leupeptin and 10 mg/l antitrypsin) and subjected to 20 minutes of ultracentrifugation at 40,000, and the resulting supernatant was dialyzed overnight against 150 volumes of a buffer C (100 mM Tris/HCl (pH 7.5), 0.5 M NaCl, 1 mM EDTA-2Na, 0.1 mM DTT and 10% glycerol) and then filtered through a 5 μm filter. The filtrate was applied to a biotin affinity column, washed with the buffer B and then eluted with the buffer B supplemented with 5 mM biotin.
2. Measurement of ACC Inhibition Activity
Each of the compounds produced in the Examples was dissolved in DMSO, and the solution was put into a glass vial, mixed with 250 μl of an ACC-containing reagent 1 (40 mM Tris/HCl (pH 7.5), 40 mM MgCl2, 40 mM sodium citrate, 2 mM DTT and 100 μg/ml fatty acid-free BSA),incubated at 37° C. for 30 minutes in a thermostatic chamber, cooled with ice, mixed with 250 μl of a reagent 2 (40 mM Tris/HCl (pH 7.5), 2 mM DTT, 8 mM ATP and 0.5 mM acetyl-CoA) containing 74 kBq of NaH^14CO3, again incubated at 37° C. for 10 minutes in a thermostatic chamber and then mixed with 0.1 ml of 1 N HCl to terminate the reaction. After complete removal of moisture in the glass vial under a reduced pressure, an emulsified scintillator (Cleasol I) was added to the glass vial, and the ^14C radioactivity was measured using a liquid scintillation counter. […]
Inhibition activity ratio (%)=(1−radioactivity when a drug to be tested is added/radioactivity when the drug to be rested is not added)×100

HepG2 cells = test: Measurement of intracellular fatty acid synthesis inhibition activity (FA biosynthesis from [14C]-glucose); assay type: cell-based; details: Homo sapiens, 3.0 × 10^−5 M compound, 3 hours culture with [14C]-glucose
Procedure: Measurement of Intracellular Fatty Acid Synthesis Inhibition Activity (FA Biosynthesis Inhibition Activity)
Each of the compounds produced in the Examples was dissolved in DMSO and added to an experimental culture medium (DMEM; 0.05 μg/ml insulin, 0.1 mg/ml glucose and 18.5 kBq/ml [^14C]-glucose). The HepG2 cells were adjusted to a density of 0.75×10^6 cells/ml, inoculated into a 12 well plate in an amount of 1 ml/well and cultured overnight at 37° C. in an atmosphere of 5% CO2 (culture medium: DMEM, […] and 10% FBS), and the resulting cells were washed twice with PBS(−) buffer, mixed with the experimental culture medium in an amount of 0.5 ml/well and then cultured at 37° C. for 3 hours in an atmosphere of 5% CO2. After the culturing, the cells were washed twice with ice-cooled PBS(−) buffer and peeled off, and lipids were extracted from the resulting cells with a lipid extraction solution (chloroform:methanol=2:1). The extract was mixed with 2.5 ml of ethanol and 0.1 ml of 33% potassium hydroxide and incubated at 70° C. for 1 hour. Lipids were again extracted from the reaction mixture, and the extract was applied to a silica gel thin layer plate. This was developed with a developing solution (hexane:diethyl ether:acetic acid=80:20:1) and then the fatty acid iodine-coloring part was collected to measure its radioactivity using a liquid scintillation counter. The inhibition activity % (3.0×10^−5 M) of each compound was calculated.

melting point | inhibition at 5.6 µM [1] | SMILES | inhibition at 30 µM (HepG2 cells)
124 to 127 °C | 89.4% | CCCCCCCCCC(=O)NS(=O)(=O)c1ccccc1NC(=O)c1cccc(OCC2CCCCC2)c1 [Example 28, N-[2-(3-Cyclohexylmethoxybenzamido)benzenesulfonyl]decanamide] | 84.6%
163 to 164 °C | 53.2% | CCCCCC(=O)NS(=O)(=O)c1ccccc1NC(=O)c1cccc(OCc2ccc(C(C)(C)C)cc2)c1 [Example 30, N-[2-[3-(4-t-Butylbenzyloxy)benzamido]benzenesulfonyl]hexanamide] | 87.1%
208 to 209 °C | 54.3% | C/C=C/C=C/C(=O)NS(=O)(=O)c1ccccc1NC(=O)c1ccc(C#Cc2ccccc2)cc1 [Example 43, trans-N-[2-(4-Phenylethynylbenzamido)benzenesulfonyl]-2,4-hexadienamide] | 92.3%
129 to 130 °C | 79.9% | CCCCCCCCCC(=O)NS(=O)(=O)c1ccccc1NC(=O)c1ccc([N+](=O)[O-])c(OCc2ccccc2)c1 [Example 16, N-[2-(3-Benzyloxy-4-nitrobenzamido)benzenesulfonyl]decanamide] | 94.3%
110 to 111 °C | 79.5% | CC(C)(C)c1ccc(COc2cccc(C(=O)Nc3ccccc3S(=O)(=O)NC(=O)/C=C/c3ccccc3)c2)cc1 [Example 13, N-[2-[3-(4-t-Butylbenzyloxy)benzamido]benzenesulfonyl]cinnamamide] | 38.1%
172 to 174 °C | 83.6% | CCCCCCCCCC(=O)NS(=O)(=O)c1ccccc1NC(=O)c1cccc(OCCCCCCC)c1 [Example 37, N-[2-(3-Heptyloxybenzamido]benzenesulfonyl]decanamide] | 64.3%
142 to 143 °C | 52.3% | CCCCCC(=O)NS(=O)(=O)c1ccccc1NC(=O)c1cccc(OCc2ccc(C(F)(F)F)cc2)c1 [Example 33, N-[2-[3-(4-Trifluoromethylbenzyloxy)benzamido]benzenesulfonyl]hexanamide] | 97.5%
132 to 133 °C | 67.6% | CCCCCCCCCC(=O)NS(=O)(=O)c1ccccc1NC(=O)c1cccc(OCc2ccc(C(C)(C)C)cc2)c1 [Example 31, N-[2-[3-(4-t-Butylbenzyloxy)benzamido]benzenesulfonyl]decanamide] | 66.4%
201 to 202 °C | 60.7% | O=C(Nc1ccccc1S(=O)(=O)NC(=O)c1ccccc1)c1cccc(OCc2ccccc2)c1 [Example 2, N-[2-(3-Benzyloxybenzamido)benzenesulfonyl]benzamide] | 43.8%
164 °C | 81.3% | CCCCCCCCCC(=O)NS(=O)(=O)c1ccccc1NC(=O)c1cccc(OCc2ccc(C(F)(F)F)cc2)c1 [Example 34, N-[2-[3-(4-Trifluoromethylbenzyloxy)benzamido]benzenesulfonyl]decanamide] | 87.7%
